Data on 24 compounds can be found in patent publication US7662832B2, “Pyrrolo[2,3-c]pyridine derivatives and processes for the preparation thereof” (priority 2004, dated 2010).

Structures are written as SMILES. Counter-ions that a name gives are not always drawn.

A word on the IC50: it is the midpoint of a concentration-inhibition curve.

Proton Pump (H^+/K^+-ATPase), sequence (P19156 2-1034 limits assumed): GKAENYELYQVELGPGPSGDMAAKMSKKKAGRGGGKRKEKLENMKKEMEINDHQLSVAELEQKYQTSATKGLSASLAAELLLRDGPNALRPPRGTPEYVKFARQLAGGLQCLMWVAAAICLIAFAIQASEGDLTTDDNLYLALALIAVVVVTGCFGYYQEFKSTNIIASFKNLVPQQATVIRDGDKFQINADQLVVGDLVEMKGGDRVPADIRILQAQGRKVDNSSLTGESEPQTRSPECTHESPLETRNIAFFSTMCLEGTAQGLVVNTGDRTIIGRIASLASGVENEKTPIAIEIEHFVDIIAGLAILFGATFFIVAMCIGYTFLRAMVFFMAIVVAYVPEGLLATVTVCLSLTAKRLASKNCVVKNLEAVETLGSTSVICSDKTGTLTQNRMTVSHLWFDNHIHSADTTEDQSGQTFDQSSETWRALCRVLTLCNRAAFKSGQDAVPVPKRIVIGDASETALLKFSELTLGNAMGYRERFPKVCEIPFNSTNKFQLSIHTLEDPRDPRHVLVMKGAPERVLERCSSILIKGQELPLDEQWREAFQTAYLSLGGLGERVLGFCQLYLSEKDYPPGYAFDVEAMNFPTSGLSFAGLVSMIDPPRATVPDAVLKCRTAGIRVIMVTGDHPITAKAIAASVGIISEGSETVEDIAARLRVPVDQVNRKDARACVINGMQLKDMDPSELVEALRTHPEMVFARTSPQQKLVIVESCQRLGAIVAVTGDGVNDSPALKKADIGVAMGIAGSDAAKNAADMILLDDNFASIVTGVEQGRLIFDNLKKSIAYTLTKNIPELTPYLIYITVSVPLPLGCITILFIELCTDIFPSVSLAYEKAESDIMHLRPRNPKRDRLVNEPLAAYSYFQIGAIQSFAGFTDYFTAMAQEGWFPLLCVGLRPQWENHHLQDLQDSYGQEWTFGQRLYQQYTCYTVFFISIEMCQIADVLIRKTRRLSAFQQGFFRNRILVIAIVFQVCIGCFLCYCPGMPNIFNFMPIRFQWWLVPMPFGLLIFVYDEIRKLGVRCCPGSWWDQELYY
Proton Pump (H^+/K^+-ATPase), sequence (P18434 whole entry partner): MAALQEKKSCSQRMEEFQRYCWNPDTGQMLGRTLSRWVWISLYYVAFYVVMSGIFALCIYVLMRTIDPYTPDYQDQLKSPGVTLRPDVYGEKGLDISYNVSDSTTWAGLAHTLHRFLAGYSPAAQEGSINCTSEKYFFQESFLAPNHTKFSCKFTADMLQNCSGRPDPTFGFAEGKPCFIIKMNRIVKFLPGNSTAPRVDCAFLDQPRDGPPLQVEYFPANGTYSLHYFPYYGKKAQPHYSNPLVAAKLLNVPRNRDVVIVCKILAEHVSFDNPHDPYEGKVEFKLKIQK

This assay concerns the target Proton Pump (H^+/K^+-ATPase) (Sus scrofa, UniProt P19156). Put plainly: Inhibitory effects on proton pump (H^+/K^+-ATPase) activity. The class given is biochemical. The settings on record: hog gastric vesicles; K^+ stimulated H^+/K^+-ATPase activity; 30 minutes at 37° C.
In turn, `COc1cccc(Cn2c(C)c(C)c3cc(CN4CCN(C)CC4)nc(N4CCc5ccccc5C4)c32)c1` [Example 876, 2-[1-(3-methoxybenzyl)-2,3-dimethyl-5-(4-methylpiperazin-1-ylmethyl)-1H-pyrrolo[2,3-c]pyridin-7-yl]-1,2,3,4-tetrahydroisoquinoline hydrochloride] yielded an IC50 of 99 nM. Then `C#CCn1c(C)c(C)c2cc(Cl)nc(N3CCc4ccccc4C3)c21` [Example 659, 2-[5-chloro-2,3-dimethyl-1-(prop-2-ynyl)-1H-pyrrolo[2,3-c]pyridin-7-yl]-1,2,3,4-tetrahydroisoquinoline], with 439 nM.

In turn, `Cc1c(C)n(Cc2ccccn2)c2c(N3CCc4ccccc4C3)nccc12` [Example 517, 1-(pyridin-2-ylmethyl)-7-(1,2,3,4-tetrahydroisoquinolin-2-yl)-2,3-dimethyl-1H-pyrrolo[2,3-c]pyridine hydrochloride] yielded an IC50 of 20 nM.

The compound `C=CCn1c(C)c(C)c2ccnc(-c3ccc(C)cc3)c21` [Example 277, 1-allyl-2,3-dimethyl-7-(p-tolyl)-1H-pyrrolo[2,3-c]pyridine hydrochloride] yielded an IC50 of 129 nM. Then `Cc1c(C)n(Cc2cccc(Cl)c2)c2c(N3CCc4ccccc4C3)nc(-c3nnnn3C)cc12` [Example 853, 2-[1-(3-chlorobenzyl)-2,3-dimethyl-5-(1-methyl-1H-tetrazol-5-yl)-1H-pyrrolo[2,3-c]pyridin-7-yl]-1,2,3,4-tetrahydroisoquinoline], with 36 nM; and `CCC1c2ccccc2CCN1c1nccc2c(C)c(C)n(Cc3ccc(OC)cc3)c12` (stereo not drawn) [Example 583, 1-ethyl-2-[1-(4-methoxybenzyl)-2,3-dimethyl-1H-pyrrolo[2,3-c]pyridin-7-yl]-1,2,3,4-tetrahydroisoquinoline hydrochloride], with 380 nM. In turn, `COc1ccc(Cn2c(C)c(C)c3ccnc(CCc4ccccc4)c32)cc1` [Example 445, 1-(4-methoxybenzyl)-2,3-dimethyl-7-phenethyl-1H-pyrrolo[2,3-c]pyridine hydrochloride] registered an IC50 of 460 nM.

Turning to `CCC1c2ccccc2CCN1c1nccc2c(C)c(C)n(CC)c12` (stereo not drawn) [Example 576, 1-ethyl-2-(1-ethyl-2,3-dimethyl-1H-pyrrolo[2,3-c]pyridin-7-yl)-1,2,3,4-tetrahydroisoquinoline hydrochloride], the IC50 was found to be 220 nM. In the case of `Cc1c(C)n(Cc2ccccc2F)c2c(CCc3ccccc3)nccc12` [Example 450, 1-(2-fluorobenzyl)-2,3-dimethyl-7-phenethyl-1H-pyrrolo[2,3-c]pyridine hydrochloride] it was 270 nM; in that of `C#CCn1c(C)c(C)c2cc(C(=O)N3CCCCC3)nc(N3CCc4ccccc4C3)c21` [Example 802, [7-(3,4-dihydro-1H-isoquinolin-2-yl)-2,3-dimethyl-1-(prop-2-ynyl)-1H-pyrrolo[2,3-c]pyridin-5-yl]-(piperidin-1-yl)-methanone hydrochloride], 80 nM. In the case of `Cc1c(C)n(CC2CC2)c2c(N3CCc4ccccc4C3)nc(C(=O)N3CCOCC3)cc12` [Example 778, [1-cyclopropylmethyl-7-(3,4-dihydro-1H-isoquinolin-2-yl)-2,3-dimethyl-1H-pyrrolo[2,3-c]pyridin-5-yl]-(morpholin-4-yl)-methanone hydrochloride] it was 39 nM; in that of `Cc1ccc(OCc2nccc3c(C)c(C)n(Cc4ccccc4)c23)cc1` [Example 15, 1-benzyl-2,3-dimethyl-7-(p-tolyloxymethyl)-1H-pyrrolo[2,3-c]pyridine hydrochloride], 140 nM; in that of `COc1ccc(Cn2c(C)c(C)c3cc(C(=O)N4CCN(C)CC4)nc(N4CCc5ccccc5C4)c32)cc1` [Example 829, [7-(3,4-dihydro-1H-isoquinolin-2-yl)-1-(4-methoxybenzyl)-2,3-dimethyl-1H-pyrrolo[2,3-c]pyridin-5-yl]-(4-methylpiperazin-1-yl)-methanone hydrochloride], 79 nM. Compound `Cc1c(C)n(Cc2ccccc2)c2c(CNc3ccc(F)cc3)nccc12` [Example 89, N-(1-benzyl-2,3-dimethyl-1H-pyrrolo[2,3-c]pyridin-7-ylmethyl)-4-fluorophenylamine hydrochloride] showed a concentration for half-maximal inhibition (IC50) of 321 nM. In the case of `Cc1c(C)n(Cc2ccccc2)c2c(N3CCc4ccccc4C3)nc(C(=O)N3CCSCC3)cc12` [Example 789, [1-benzyl-7-(3,4-dihydro-1H-isoquinolin-2-yl)-2,3-dimethyl-1H-pyrrolo[2,3-c]pyridin-5-yl]-(thiomorpholin-1-yl)-methanone hydrochloride] it was 65 nM; in that of `Cc1nc(Cn2c(C)c(C)c3ccnc(N4CCc5ccc(F)cc5C4C)c32)cs1` (stereo not drawn) [Example 551, 2-[2,3-dimethyl-1-(2-methylthiazol-4-ylmethyl)-1H-pyrrolo[2,3-c]pyridin-7-yl]-7-fluoro-1-methyl-1,2,3,4-tetrahydroisoquinoline hydrochloride], 320 nM; in that of `CC(C)=CCn1c(C)c(C)c2ccnc(N3CCc4ccc(F)cc4C3C)c21` (stereo not drawn) [Example 545, 2-[2,3-dimethyl-1-(3-methylbut-2-enyl)-1H-pyrrolo[2,3-c]pyridin-7-yl]-7-fluoro-1-methyl-1,2,3,4-tetrahydroisoquinoline hydrochloride], 190 nM. In the case of `CSc1ccc(-c2nccc3c(C)c(C)n(Cc4ccccc4F)c23)cc1` [Example 275, 2,3-dimethyl-1-(2-fluorobenzyl)-7-(4-methylsulfanylphenyl)-1H-pyrrolo[2,3-c]pyridine hydrochloride] it was 360 nM. In the case of `CCn1c(C)c(C)c2cc(C(=O)N3CCCC(O)C3)nc(N3CCc4ccccc4C3)c21` (stereo not drawn) [Example 807, [7-(3,4-dihydro-1H-isoquinolin-2-yl)-1-ethyl-2,3-dimethyl-1H-pyrrolo[2,3-c]pyridin-5-yl]-(3-hydroxypiperidin-1-yl)-methanone hydrochloride] it was 23 nM; in that of `COCCn1c(C)c(C)c2ccnc(N3CCc4cc(F)ccc4C3C)c21` (stereo not drawn) [Example 564, 6-fluoro-2-[1-(2-methoxyethyl)-2,3-dimethyl-1H-pyrrolo[2,3-c]pyridin-7-yl]-1-methyl-1,2,3,4-tetrahydroisoquinoline hydrochloride], 82 nM.

`CCn1c(C)c(C)c2ccnc(N3CCc4ccc(F)cc4C3C)c21` (stereo not drawn) [Example 543, 2-(1-ethyl-2,3-dimethyl-1H-pyrrolo[2,3-c]pyridin-7-yl)-7-fluoro-1-methyl-1,2,3,4-tetrahydroisoquinoline hydrochloride]: the IC50 came to 110 nM. Take `CCC1c2ccccc2CCN1c1nccc2c(C)c(C)n(COC)c12` (stereo not drawn) [Example 584, 1-ethyl-2-(1-methoxymethyl-2,3-dimethyl-1H-pyrrolo[2,3-c]pyridin-7-yl)-1,2,3,4-tetrahydroisoquinoline hydrochloride]: the half-maximal inhibitory concentration (IC50) was found to be 330 nM.

As for `Cc1c(C)n(Cc2ccc(Cl)cc2)c2c(CCc3ccccc3)nccc12` [Example 446, 1-(4-chlorobenzyl)-2,3-dimethyl-7-phenethyl-1H-pyrrolo[2,3-c]pyridine hydrochloride], the IC50 was 390 nM. In the case of `Cc1ccc(Cn2c(C)c(C)c3ccnc(CN(C)c4ccc(F)cc4)c32)cc1` [Example 117, N-[2,3-dimethyl-1-(4-methylbenzyl)-1H-pyrrolo[2,3-c]pyridin-7-ylmethyl]-N-(4-fluorophenyl)-methylamine hydrochloride] it was 46 nM.
